Data on 24 molecules can be found in patent US10988445B2 (AstraZeneca AB, priority 2015, dated 2021).

This assay has as its system human TH17 cells. As to the kind of experiment: Inhibition of IL-17 release from human TH17 cells. The following applies: Homo sapiens, 96 h, isolated human TH17 cells, 4 days culture, IL-17A by HTRF; read-out: pIC50 IL-17 release (converted). The class given is cell-based. In outline: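 TH17 cells (CD4+CXCR3-CCR6+) enriched from healthy-donor PBMC isolated from heparinized whole blood. Supernatants collected on day 4; IL-17A quantified by HTRF.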
For `CS(=O)(=O)c1ccc2c(c1)CN(C(=O)NC1CC1)C2C(=O)Nc1ccc(C(O)(C(F)(F)F)C(F)(F)F)cc1` (stereo not drawn) [Example 456, N^2—Cyclopropyl-N^1-[4-(1,1,1,3,3,3-hexafluoro-2-hydroxypropan-2-yl)phenyl]-5-(methylsulfonyl)-1,3-dihydro-2H-isoindole-1,2-dicarboxamide], the IC50 is 0.0126 µM.

As to `COC(=O)N1Cc2cc(S(=O)(=O)C3CC3)ccc2C1C(=O)Nc1ccc(C(O)(C(F)(F)F)C(F)(F)F)cc1` (stereo not drawn) [Example 602, Methyl 5-(cyclopropylsulfonyl)-1-{[4-(1,1,1,3,3,3-hexafluoro-2-hydroxypropan-2-yl)phenyl]carbamoyl}-1,3-dihydro-2H-isoindole-2-carboxylate], the IC50 is 0.0251 µM.

`O=CN1Cc2cc(S(=O)(=O)C3CC3)ccc2C1C(=O)Nc1ccc(C(O)(C(F)(F)F)C(F)(F)F)cc1` (stereo not drawn) [Example 604, 5-(Cyclopropylsulfonyl)-2-formyl-N-[4-(1,1,1,3,3,3-hexafluoro-2-hydroxypropan-2-yl)phenyl]-2,3-dihydro-1H-isoindole-1-carboxamide]: the IC50 was 0.0501 µM.

`COCC(=O)N1Cc2cc(S(=O)(=O)C3CC3)ccc2C1C(=O)Nc1ccc(C(O)(C(F)(F)F)C(F)(F)F)cc1` (stereo not drawn) [Example 606, 5-(Cyclopropylsulfonyl)-N-[4-(1,1,1,3,3,3-hexafluoro-2-hydroxypropan-2-yl)phenyl]-2-(methoxyacetyl)-2,3-dihydro-1H-isoindole-1-carboxamide]: the IC50 was 0.0316 µM.

`N#CC1(C(=O)N2Cc3cc(S(=O)(=O)C4CC4)ccc3C2C(=O)Nc2ccc(C(O)(C(F)(F)F)C(F)(F)F)cc2)CC1` (stereo not drawn) [Example 607, 2-[(1-Cyanocyclopropyl)carbonyl]-5-(cyclopropylsulfonyl)-N-[4-(1,1,1,3,3,3-hexafluoro-2-hydroxypropan-2-yl)phenyl]-2,3-dihydro-1H-isoindole-1-carboxamide]: the IC50 is 0.0398 µM.

Take `O=C(Nc1ccc(C(O)(C(F)(F)F)C(F)(F)F)cc1)C1c2ccc(S(=O)(=O)C3CC3)cc2CN1C(=O)[C@@H]1CCCO1` (stereo partly drawn) [Example 608, 5-(Cyclopropylsulfonyl)-N-[4-(1,1,1,3,3,3-hexafluoro-2-hydroxypropan-2-yl)phenyl]-2-[(2S)-tetrahydrofuran-2-ylcarbonyl]-2,3-dihydro-1H-isoindole-1-carboxamide]: the IC50 is 0.0398 µM.

Take `O=C(Nc1ccc(C(O)(C(F)(F)F)C(F)(F)F)cc1)C1c2ccc(S(=O)(=O)C3CC3)cc2CN1C(=O)[C@H]1CCCO1` (stereo partly drawn) [Example 609, 5-(Cyclopropylsulfonyl)-N-[4-(1,1,1,3,3,3-hexafluoro-2-hydroxypropan-2-yl)phenyl]-2-[(2R)-tetrahydrofuran-2-ylcarbonyl]-2,3-dihydro-1H-isoindole-1-carboxamide]: the IC50 was 0.0501 µM.

`CNC(=O)N1Cc2cc(S(=O)(=O)C3CC3)ccc2C1C(=O)Nc1ccc(C(O)(C(F)(F)F)C(F)(F)F)cc1` (stereo not drawn) [Example 610]: the IC50 is 0.0631 µM.

Take `COCCS(=O)(=O)c1ccc2c(c1)CNC2C(=O)Nc1ccc(C(O)(C(F)(F)F)C(F)(F)F)cc1` (stereo not drawn) [Example 700, N-(4-(1,1,1,3,3,3-hexafluoro-2-hydroxypropan-2-yl)phenyl)-5-((2-methoxyethyl)sulfonyl)isoindoline-1-carboxamide]: the IC50 is 0.1 µM.

`COCCS(=O)(=O)c1ccc2c(c1)CN(C=O)C2C(=O)Nc1ccc(C(O)(C(F)(F)F)C(F)(F)F)cc1` (stereo not drawn) [Example 701, 2-Formyl-N-[4-(1,1,1,3,3,3-hexafluoro-2-hydroxypropan-2-yl)phenyl]-5-[(2-methoxyethyl)sulfonyl]-2,3-dihydro-1H-isoindole-1-carboxamide]: the IC50 was 0.0158 µM.

For `COCCS(=O)(=O)c1ccc2c(c1)CN(C(=O)C1(OC)CC1)C2C(=O)Nc1ccc(C(O)(C(F)(F)F)C(F)(F)F)cc1` (stereo not drawn) [Example 703, N-[4-(1,1,1,3,3,3-hexafluoro-2-hydroxypropan-2-yl)phenyl]-2-[(1-methoxycyclopropyl)carbonyl]-5-[(2-methoxyethyl)sulfonyl]-2,3-dihydro-1H-isoindole-1-carboxamide], the IC50 was 0.0251 µM.

As to `COCCS(=O)(=O)c1ccc2c(c1)CN(C(=O)OC)C2C(=O)Nc1ccc(C(O)(C(F)(F)F)C(F)(F)F)cc1` (stereo not drawn) [Example 704, Methyl 1-{[4-(1,1,1,3,3,3-hexafluoro-2-hydroxypropan-2-yl)phenyl]carbamoyl}-5-[(2-methoxyethyl)sulfonyl]-1,3-dihydro-2H-isoindole-2-carboxylate], the IC50 is 0.0251 µM.

As to `COCCS(=O)(=O)c1ccc2c(c1)CN(C(=O)CO)C2C(=O)Nc1ccc(C(O)(C(F)(F)F)C(F)(F)F)cc1` (stereo not drawn) [Example 705, N-[4-(1,1,1,3,3,3-Hexafluoro-2-hydroxypropan-2-yl)phenyl]-2-(hydroxyacetyl)-5-[(2-methoxyethyl)sulfonyl]-2,3-dihydro-1H-isoindole-1-carboxamide], the IC50 was 0.1 µM.

Turning to `COCCS(=O)(=O)c1ccc2c(c1)CN(C(=O)COC)C2C(=O)Nc1ccc(C(O)(C(F)(F)F)C(F)(F)F)cc1` (stereo not drawn) [Example 706, N-[4-(1,1,1,3,3,3-Hexafluoro-2-hydroxypropan-2-yl)phenyl]-2-(methoxyacetyl)-5-[(2-methoxyethyl)sulfonyl]-2,3-dihydro-1H-isoindole-1-carboxamide], the IC50 is 0.0501 µM.

`CNC(=O)N1Cc2cc(S(=O)(=O)CCOC)ccc2C1C(=O)Nc1ccc(C(O)(C(F)(F)F)C(F)(F)F)cc1` (stereo not drawn) [Example 707]: the IC50 is 0.0501 µM.

Regarding `COC1(C(=O)N2Cc3cc(S(=O)(=O)CCO)ccc3C2C(=O)Nc2ccc(C(O)(C(F)(F)F)C(F)(F)F)cc2)CC1` (stereo not drawn) [Example 802, N-[4-(1,1,1,3,3,3-Hexafluoro-2-hydroxypropan-2-yl)phenyl]-5-[(2-hydroxyethyl)sulfonyl]-2-[(1-methoxycyclopropyl)carbonyl]-2,3-dihydro-1H-isoindole-1-carboxamide], the IC50 is 0.0794 µM.

For the molecule `COC(=O)N1Cc2cc(S(=O)(=O)CC3(C#N)CC3)ccc2C1C(=O)Nc1ccc(C(O)(C(F)(F)F)C(F)(F)F)cc1` (stereo not drawn) [Example 902, Methyl 5-{[(1-cyanocyclopropyl)methyl]sulfonyl}-1-{[4-(1,1,1,3,3,3-hexafluoro-2-hydroxypropan-2-yl)phenyl]carbamoyl}-1,3-dihydro-2H-isoindole-2-carboxylate], the IC50 is 0.0501 µM.

Regarding `CC(=O)N1Cc2cc(S(=O)(=O)CC(C)C)ccc2C1C(=O)Nc1ccc(C(O)(C(F)(F)F)C(F)(F)F)cc1` (stereo not drawn) [Example 1001, 2-Acetyl-N-[4-(1,1,1,3,3,3-hexafluoro-2-hydroxypropan-2-yl)phenyl]-5-[(2-methylpropyl)sulfonyl]-2,3-dihydro-1H-isoindole-1-carboxamide], the IC50 is 0.1 µM.

With `O=C(Nc1ccc(C(O)(C(F)(F)F)C(F)(F)F)cc1)C1NCc2cc(S(=O)(=O)CC3(O)CC3)ccc21` (stereo not drawn) [Example 1100, N-[4-(1,1,1,3,3,3-Hexafluoro-2-hydroxypropan-2-yl)phenyl]-5-{[(1-hydroxycyclopropyl)methyl]sulfonyl}-2,3-dihydro-1H-isoindole-1-carboxamide], the IC50 is 0.2 µM.

Consider `CC(=O)N1Cc2cc(S(=O)(=O)CC3(O)CC3)ccc2C1C(=O)Nc1ccc(C(O)(C(F)(F)F)C(F)(F)F)cc1` (stereo not drawn) [Example 1101, 2-Acetyl-N-[4-(1,1,1,3,3,3-hexafluoro-2-hydroxypropan-2-yl)phenyl]-5-{[(1-hydroxycyclopropyl)methyl]sulfonyl}-2,3-dihydro-1H-isoindole-1-carboxamide], for which the IC50 was 0.0631 µM.

For `O=CN1Cc2cc(S(=O)(=O)CC3(O)CC3)ccc2C1C(=O)Nc1ccc(C(O)(C(F)(F)F)C(F)(F)F)cc1` (stereo not drawn) [Example 1102, 2-Formyl-N-[4-(1,1,1,3,3,3-hexafluoro-2-hydroxypropan-2-yl)phenyl]-5-{[(1-hydroxycyclopropyl)methyl]sulfonyl}-2,3-dihydro-1H-isoindole-1-carboxamide], the IC50 was 0.0316 µM.

Regarding `O=C(Nc1ccc(C(O)(C(F)(F)F)C(F)(F)F)cc1)C1c2ccc(S(=O)(=O)CC3(O)CC3)cc2CN1C(=O)CO` (stereo not drawn) [Example 1103, N-[4-(1,1,1,3,3,3-Hexafluoro-2-hydroxypropan-2-yl)phenyl]-2-(hydroxyacetyl)-5-{[(1-hydroxycyclopropyl)methyl]sulfonyl}-2,3-dihydro-1H-isoindole-1-carboxamide], the IC50 is 0.501 µM.

For the molecule `CC(=O)N1Cc2cc(S(=O)(=O)CC(C)O)ccc2C1C(=O)Nc1ccc(C(O)(C(F)(F)F)C(F)(F)F)cc1` (stereo not drawn) [Example 1200, 2-Acetyl-N-[4-(1,1,1,3,3,3-hexafluoro-2-hydroxypropan-2-yl)phenyl]-5-[(2-hydroxypropyl)sulfonyl]-2,3-dihydro-1H-isoindole-1-carboxamide], the IC50 was 0.158 µM.

In the case of `O=C(Nc1ccc(C(O)(C(F)(F)F)C(F)(F)F)cc1)C1NCc2cc(S(=O)(=O)CC3(F)CC3)ccc21` (stereo not drawn) [Example 1300, 5-{[(1-Fluorocyclopropyl)methyl]sulfonyl}-N-[4-(1,1,1,3,3,3-hexafluoro-2-hydroxypropan-2-yl)phenyl]-2,3-dihydro-1H-isoindole-1-carboxamide], the IC50 was 0.251 µM.
